Values quoted from earlier work as cited in patent US5480779A (priority 1988, dated 1996).

Molecular target: peptidyl-prolyl cis-trans-isomerase (Sus scrofa, UniProt P62936)
Sequence (P62936 whole entry): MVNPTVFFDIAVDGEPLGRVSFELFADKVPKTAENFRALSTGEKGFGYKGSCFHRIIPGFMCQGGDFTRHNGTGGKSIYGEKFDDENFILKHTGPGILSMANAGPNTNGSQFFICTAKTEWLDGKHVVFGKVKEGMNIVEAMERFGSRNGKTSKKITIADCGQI

With `O=C(O)c1cc[c]([Hg][Cl])cc1` [p-chloromercuribenzoate] as the molecule, how does the “inactivation / inhibition of the enzyme” value read?
The value was “strongly inactivated”.

Which “inactivation / inhibition of the enzyme” value does the source give for `CCCCCCCCCCCCOS(=O)(=O)[O-].[Na+]` [sodium dodecylsulfate] here?
The value was “strongly inactivated”.

Which “inactivation / inhibition of the enzyme” value does the source give for chloroiosylamidophenylbutane here?
Its value is “not inhibited”.
